Here are results for 1 molecule from patent publication US10183032B2, “Methods for treating bacterial infection” (Ball State Innovation Corporation, priority 2012, dated 2019).

What all share (assay type): cell-based
The subject of experiment [1] is Staphylococcus aureus. The experiment in a line: S. aureus invasion in all cell types examined. The note with it: HUVEC, HEK, U-87 MG, RAW and A549. The procedure: Two days prior to the assay, TSB is inoculated with S. aureus (American Type Culture Collection #29213) and incubated overnight (225 rpm, 37° C.). Bacteria are subcultured the next day into fresh TSB. On the day of the assay, bacteria are pelleted (10000×g, 37° C., 3 min), are washed in saline, are pelleted as above, are resuspended in saline, then fluorescently labeled by incubation with rabbit anti-mouse IgG Alexa Fluor 488 (final concentration 8 μg/ml, RT, 20 min). Protein A, a S. aureus cell surface protein, avidly binds IgG thereby labeling the bacteria. Labeled bacteria are washed twice as above and are resuspended to 3×10^8 CFU/ml in saline. Host cells are incubated with the bacteria for 1 hour (1.2×10^8 CFU/ml for same-day recovery, 5×10^6 for recovery after 48 hours, 1.4×10^7 CFU/ml; 5% CO2, 37° C.). […] To detect the level of infection using flow cytometry, cells that have been infected with fluorescently-labeled bacteria are washed extensively with PBS, lifted from 96-well plate by incubation with trypsin, washed extensively in FACS buffer (2% BSA/0.1% sodium azide/PBS), fixed (FACS buffer containing 0.74% formaldehyde), and are counted using an Accuri flow cytometer (BD, Franklin Lakes, N.J.). They are also lifted from culture dishes using cell scrapers, pelleted, fixed (1% BSA/0.74% formaldehyde/PBS), and are counted using an Accuri flow cytometer. […]

The subject of experiment [2] is Staphylococcus aureus. The experiment is described as follows: Assessment of bactericidal activity (HUVEC media). The procedure: FIG. 6B illustrates that neither cytotoxicity nor bactericidal activity is detected. Cultures of Staphylococcus aureus that had been incubated with the vehicle control DMSO or with ML 141 (1 hour, 37° C., 225 rpm) were serially diluted, plated onto blood agar, and incubated (18 hours, 37° C.). Colonies were enumerated and colony forming units (CFU)/ml determined. CFU/ml were not different amongst the groups (p>0.05 by t-test; n=2/treatment). […]

The test system of experiment [3] is Staphylococcus aureus. The experiment in a line: Intracellular S. aureus population in HUVEC 48 hours post infection, CFU. The note with it: HUVEC pretreated 18 hours (1.0 μM FIG. 7; 10 μM FIG. 11), infected 1 hour. Here is the method:
FIG. 7 is a graph illustrating suppression of intracellular population sustained over time. Human umbilical vein endothelial cells (HUVEC) were pretreated (1.0 μM, 18 hours) with the vehicle control dimethyl sulfoxide (DMSO) or ML 141 and infected with Staphylococcus aureus (1 hour). At 48 hours, intracellular bacteria were recovered, serial dilutions incubated on tryptic soy agar and colonies enumerated. Data are presented as % control, ±SEM (*less than vehicle control; p≤0.05 by t-test; n=3-5/treatment).
FIG. 11 is a graph illustrating suppression of intracellular population sustained over time. […]
Two days prior to the assay, TSB is inoculated with S. aureus (American Type Culture Collection #29213) and incubated overnight (225 rpm, 37° C.). […] To detect the level of infection using flow cytometry, cells that have been infected with fluorescently-labeled bacteria are washed extensively with PBS, lifted from 96-well plate by incubation with trypsin, washed extensively in FACS buffer (2% BSA/0.1% sodium azide/PBS), fixed (FACS buffer containing 0.74% formaldehyde), and are counted using an Accuri flow cytometer (BD, Franklin Lakes, N.J.). They are also lifted from culture dishes using cell scrapers, pelleted, fixed (1% BSA/0.74% formaldehyde/PBS), and are counted using an Accuri flow cytometer. […]

Experiment [4] relates to Human umbilical vein endothelial cells. The experiment in a line: Transmission electron microscopy of infected HUVEC. The note with it: ML 141 10 μM, S. aureus MOI 30, 2 h. Here is the method: FIG. 9 is an image depicting ML 141 limiting damage to host cells. Human umbilical vein endothelial cells were incubated with the vehicle control polyethylene glycol (PEG) or with ML 141 (10 μM) 18-20 h prior to infection with Staphylococcus aureus at a multiplicity of infection of 30 (2 h). Following infection, extracellular bacteria were removed by incubating with lysostaphin and gentamicin (45 min), antimicrobials with limited mammalian membrane permeability. Antimicrobial-containing media was replenished and incubation extended an additional 24 h. Cells were fixed, stained, and examined by transmission electron microscopy. White arrow indicates mitochondria. Black arrow indicates filopodia. White arrowhead indicates membranous structure surrounding bacteria. Black arrowhead indicates dividing bacteria. Scale bar is 5 μm.
HUVEC were plated onto glass coverslips at […], pretreated and infected at a multiplicity of infection (MOI) of 30 for 2 h. Extracellular bacteria were removed and cells incubated for an additional 24 h in media containing antibiotics. […]

“Also recorded” adds a separate entry of the source.

For `COc1ccc(C2CC(c3ccccc3)=NN2c2ccc(S(N)(=O)=O)cc2)cc1` (centres unmarked) [ML 141, 4-[3-(4-methoxyphenyl)-5-phenyl-3,4-dihydropyrazol-2-yl]benzenesulfonamide], the “inhibition of invasion in all cell types examined” value in the experiment with Staphylococcus aureus [1] is recorded as “inhibited invasion”. Besides, the “CFU (×10^8 ± SEM), Compound (10 μM)” value in the experiment on Staphylococcus aureus [2] (1.2 × 10^8 CFU S. aureus, 1 h in HUVEC media, 10 μM) is 8.8 ± 2.9 ×10^8 CFU. Further, the “Bactericidal activity (in words)” value with Staphylococcus aureus [2] (S. aureus incubated 1 h with compound, FIG. 6B, Tables 6 and 7) was “not detected”. Moreover, in the experiment on Staphylococcus aureus [3], the “viable intracellular bacteria recovered 48 hours post-infection” value is “diminished the number of viable bacteria recovered; also recorded: lower”. Besides, the “host cell ultrastructure 24 h post-invasion (organelles)” value in experiment [4] is listed as “remained intact”.
